ChEMBL document CHEMBL1667752 (Eur J Med Chem, 2011)

Assays:
Cannabinoid receptor 2 = Cannabinoid receptor 2 (Homo sapiens, UniProt P34972); test: Displacement of [3H]CP 55940 from human CB2 receptor in cell free system; conditions: read-out: Ki
Cannabinoid receptor 1 = Cannabinoid receptor 1 (Homo sapiens, UniProt P21554); test: Displacement of [3H]CP 55940 from human CB1 receptor in cell free system
Homo sapiens = species: Homo sapiens; test: Selectivity ratio of Ki for human CB1 to Ki for human CB2

Sequence of Cannabinoid receptor 2 (P34972 whole entry): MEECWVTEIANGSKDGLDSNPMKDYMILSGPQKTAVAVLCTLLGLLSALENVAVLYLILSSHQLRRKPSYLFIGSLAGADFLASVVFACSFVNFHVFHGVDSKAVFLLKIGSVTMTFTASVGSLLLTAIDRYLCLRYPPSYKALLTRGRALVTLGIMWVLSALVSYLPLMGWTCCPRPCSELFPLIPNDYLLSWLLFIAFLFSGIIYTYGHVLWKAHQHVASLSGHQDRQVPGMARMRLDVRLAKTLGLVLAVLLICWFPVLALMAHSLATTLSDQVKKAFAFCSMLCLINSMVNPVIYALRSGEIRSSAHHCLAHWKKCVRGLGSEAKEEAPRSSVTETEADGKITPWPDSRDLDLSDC
Sequence of Cannabinoid receptor 1 (P21554 whole entry): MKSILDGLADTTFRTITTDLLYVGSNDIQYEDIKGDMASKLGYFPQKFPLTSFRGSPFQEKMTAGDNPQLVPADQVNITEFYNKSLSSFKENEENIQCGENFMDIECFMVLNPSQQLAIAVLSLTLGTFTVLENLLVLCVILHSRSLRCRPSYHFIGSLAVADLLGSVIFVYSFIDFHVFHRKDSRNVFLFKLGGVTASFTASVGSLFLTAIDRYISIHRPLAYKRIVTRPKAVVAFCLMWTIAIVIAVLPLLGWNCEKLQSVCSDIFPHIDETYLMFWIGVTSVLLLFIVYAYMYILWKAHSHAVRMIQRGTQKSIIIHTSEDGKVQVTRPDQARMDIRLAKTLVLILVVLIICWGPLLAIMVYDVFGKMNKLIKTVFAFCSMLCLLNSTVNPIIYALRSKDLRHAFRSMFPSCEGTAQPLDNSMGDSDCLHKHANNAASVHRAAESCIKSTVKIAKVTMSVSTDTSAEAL

Row | Compound | Ki (Cannabinoid receptor 2) [nM] | Ki (Cannabinoid receptor 1) [nM] | log(ratioKi) (Homo sapiens)
1 | COc1ccc(OC)c2c(=O)c(C(=O)NC34CC5CC(CC(C5)C3)C4)c[nH]c12 | 52.6 | 2100 | 1.6
2 | CCCCCCC1(c2cc(O)c3c(c2)OC(C)(C)[C@@H]2CC=C(C)C[C@@H]32)CC1(Cl)Cl (stereo partly specified) | 1.3 | 1.8 | 0.19
3 | C=C1CC[C@@H]2[C@@H](C1)c1c(OC)cc(C(C)(C)CCCCCC)cc1OC2(C)C | 11.8 | 4890 | 2.26
4 | Cc1ccc(C(=O)NC2C(C)(C)[C@@H]3CC[C@]2(C)C3)cc1S(=O)(=O)N1CCOCC1 (stereo partly specified) | 3.9 | 130 | 1.5
5 | CCCCCn1cc(C(=O)NC2C(C)(C)[C@@H]3CC[C@@]2(C)C3)c(=O)c2cc(-c3ccco3)ccc21 (stereo partly specified) | 2.4 | 480 | 2.3
6 | Cc1ccc2c(=O)c(C(=O)NC3CCCC3)cn(CCN3CCOCC3)c2n1 | 50 | 1000 | 1.3
7 | Cc1ccc2c(c1)Cc1c(C(=O)NN3CCCCC3)nn(-c3ccc(Cl)cc3Cl)c1-2 | 0.04 | 363 | 3.95
8 | CCCCCn1c(C)c(C(=O)c2ccc(CCC)c3ccccc23)c2ccccc21 | 0.6 | 1.3 | 0.32
9 | CCCCCCC1CCCc2c1cc1c(c2O)[C@@H]2CC(C)=CC[C@H]2C(C)(C)O1 (stereo partly specified) | 5.4 | 22.3 | 0.6
10 | CC1=CC[C@@H]2[C@@H](C1)c1c(OC(=O)CCCN3CCOCC3)cc(C(C)(C)CCCCC#N)cc1OC2(C)C | 8 | 8.4 | 0.02
11 | CC1=CC[C@@H]2[C@@H](C1)c1c(O)cc(C(C)(C)c3cccs3)cc1OC2(C)C | 0.91 | 12.3 | 1.13
12 | CCC(C)(C)C(=O)Cc1cc(C)c(C)c(S(=O)(=O)N2CCCCC2)c1 | 2.7 | 650 | 2.38
13 | CCCCCn1c(C)c(C(=O)c2ccc(CCCC)c3ccc(C)cc23)c2ccccc21 | 6.5 | 42 | 0.81
14 | Cc1c(C(C)(C)C)s/c(=N\C(=O)c2ccc(OC(F)(F)F)cc2)n1CC1CC1 | 5.7 | 1100 | 2.28
15 | CCCCCCC1(c2cc(O)c3c(c2)OC(C)(C)[C@@H]2CC=C(C)C[C@@H]32)CC1 | 0.9 | 1 | 0.07
16 | CCC1CCC(C(=O)c2cn(CCN3CCOCC3)c3ccccc23)CC1 (stereo unspecified) | 16 | 616 | 1.58
17 | CC1(C)C(C(=O)c2cn(CC3CCOCC3)c3c(COc4ccccc4)cccc23)C1(C)C | 3 | 28 | 0.98
18 | CCCCCCC1(c2cc(O)c3c(c2)OC(C)(C)[C@@H]2CC=C(C)C[C@@H]32)OCCO1 | 0.2 | 0.5 | 0.43
19 | CCC(C)(C)C(=O)Cc1cc(C)c(C)c(S(=O)(=O)N2CCCCCC2)c1 | 9 | 1800 | 2.3
20 | Cc1c(C(C)(C)C)s/c(=N\S(=O)(=O)c2cccc3ccccc23)n1C1CC1 | 16 | 1700 | 2.02
21 | Cc1c(C(C)(C)C)s/c(=N\C(=O)c2ccc(Br)cc2)n1CC1CC1 | 1.2 | 53 | 1.6
22 | CCCCCCC(C)(C)c1cc(OC)c2c(c1)OC(C)(C)[C@@H]1CC=C(C)C[C@@H]21 | 6.4 | 1040 | 2.21
23 | Cc1nc(C(=O)NC23CC4CC(CC2C4)C3)c(C)n1-c1ccccc1 | 9.7 | 5440 | 2.74
24 | CC1(C)C(C(=O)c2cn(CC3CCOCC3)c3cc(O)ccc23)C1(C)C | 8.3 | 2950 | 2.55
25 | CC1(C)C(C(=O)c2cn(CC3CCOCC3)c3ccc(N)cc23)C1(C)C | 9 | 1000 | 2.05
26 | CCCCCCn1cc(C(=O)NC2CCCCC2)c(=O)c2ccc(C)nc21 | 8 | 95 | 1.07
27 | Cc1c(Cl)ccc2c(=O)c(C(=O)NC34CC5CC(CC(C5)C3)C4)c[nH]c12 | 25.5 | > 10000 | 2.59
